Experimental data taken from patent US11607404B2, “Combinations of RAD51 and PARP inhibitors” (Cyteir Therapeutics, Inc., priority 2019, dated 2023).

Assays:
HBCx16 model = assay: Tumor growth inhibition, subcutaneous engrafted tumor model; assay type: in vivo, mice; details: HRD Positive, RAD51 High, BRCA1 Meth, PALB2 WT, 67A 80 mg/kg QD, olaparib 100 mg/kg QD, combo both
Method: (§1) Immunodeficient mice were subcutaneously engrafted in the rear flank with the tumor cells. The tumors were allowed to grow to a size of about 100 to about 200 mm^3 prior to being randomized and grouped into treatment arms. For models […] through […] the four treatment arms were vehicle, Compound 67A at 80 mg/kg QD, olaparib at 100 mg/kg QD, and Compound 67A+Olaparib at 80 mg/kg QD and 100 mg/kg QD, respectively. For models J000101173 through TM00091 the treatment arms were vehicle, Compound 67A at 40 mg/kg QD, olaparib at 50 mg/kg QD, and Compound 67A+Olaparib at 40 mg/kg QD and 50 mg/kg QD, respectively. The tumors were measured either once weekly or twice weekly.
(§2) Percent Tumor Growth Inhibition (% TGI) was calculated by taking the mean volume of each of the treatment arms, and comparing the treatment arms to the vehicle arms using the following equation

HBCx17 model = assay: as above; assay type: in vivo, mice; details: HRD Positive, RAD51 High, BRCA2 Mut, PALB2 WT, 67A 80 mg/kg QD, olaparib 100 mg/kg QD, combo both
Method: as §1, §2

TM00096 model = assay: as above; assay type: in vivo, mice; details: HRD Positive, RAD51 Low, BRCA WT, PALB2 WT, 67A 40 mg/kg QD, olaparib 50 mg/kg QD, combo both
Method: as §1, §2

HBCx12B model = assay: as above; assay type: in vivo, mice; details: HRD Positive, RAD51 High, BRCA1 Meth, PALB2 WT, 67A 80 mg/kg QD, olaparib 100 mg/kg QD, combo both
Method: as §1, §2

HBCx11 model = assay: as above; assay type: in vivo, mice; details: HRD Positive, RAD51 High, BRCA1 Mut, PALB2 WT, 67A 80 mg/kg QD, olaparib 100 mg/kg QD, combo both
Method: as §1, §2

TM00091 model = assay: as above; assay type: in vivo, mice; details: HRD Positive, RAD51 High, BRCA1 Mut, PALB2 WT, 67A 40 mg/kg QD, olaparib 50 mg/kg QD, combo both
Method: as §1, §2

J000101173 model = assay: as above; assay type: in vivo, mice; details: HRD Positive, RAD51 Low, BRCA WT, PALB2 WT, 67A 40 mg/kg QD, olaparib 50 mg/kg QD, combo both
Method: as §1, §2

TM00090 model = assay: as above; assay type: in vivo, mice; details: HRD Positive, RAD51 Low, BRCA1 Meth, BRCA2 Mut, PALB2 WT, 67A 40 mg/kg QD, olaparib 50 mg/kg QD, combo both
Method: as §1, §2

HBCx1 model = assay: as above; assay type: in vivo, mice; details: HRD Positive, RAD51 High, BRCA WT, PALB2 WT, 67A 80 mg/kg QD, olaparib 100 mg/kg QD, combo both
Method: as §1, §2

T298 model = assay: as above; assay type: in vivo, mice; details: HRD Positive, RAD51 Low, BRCA WT, PALB2 Mut, 67A 80 mg/kg QD, olaparib 100 mg/kg QD, combo both
Method: as §1, §2

HBCx27 model = assay: as above; assay type: in vivo, mice; details: HRD Negative, RAD51 High, BRCA WT, PALB2 WT, 67A 80 mg/kg QD, olaparib 100 mg/kg QD, combo both
Method: as §1, §2

J000100675 model = assay: as above; assay type: in vivo, mice; details: HRD Negative, RAD51 Low, BRCA WT, PALB2 WT, 67A 40 mg/kg QD, olaparib 50 mg/kg QD, combo both
Method: as §1, §2

HBCx23 model = assay: as above; assay type: in vivo, mice; details: HRD Positive, RAD51 High, BRCA1 Meth, PALB2 WT, 67A 80 mg/kg QD, olaparib 100 mg/kg QD, combo both
Method: as §1, §2

TM01079 model = assay: as above; assay type: in vivo, mice; details: HRD Positive, RAD51 Low, BRCA1 Meth, PALB2 WT, 67A 40 mg/kg QD, olaparib 50 mg/kg QD, combo both
Method: as §1, §2

TM000113 model = assay: as above; assay type: in vivo, mice; details: HRD Negative, RAD51 Low, BRCA WT, PALB2 WT, 67A 40 mg/kg QD, olaparib 50 mg/kg QD, combo both
Method: as §1, §2

[1] = tested on: ARPE19/HPV16, KYSE-70 and Daudi cell lines; assay: Combination matrix study Compound 67A + PARP inhibitors, cell lines of varying AID expression (Bliss, Loewe); assay type: cell-based; details: non-tumor derived cell line ARPE19/HPV16; in combination with Compound 67A
Method: The combination matrix was tested in 3 cell lines of varying AID expression: ARPE19/HPV16 (HPV immortalized normal epithelial cell line), KYSE-70 (head and neck cancer cell line) and Daudi (Burkitt's Lymphoma cell line). […] Both the Loewe Additivity model and the Bliss Independence model were used to determine drug interaction (synergistic, independent, or antagonistic).
Bliss Independence model was used and calculated in Excel. The model assumes that the drugs act with probabilistic independence. Bliss: yexp=yA+yB−yAyB
This expected value was generated by examining single-agent effects and then tested against the observed value using a two-tailed Welch's T-Test. For visualization purposes, the values generated from this test were transformed to a “Synergy Score” by doing the computation:
Loewe Additivity model was used and calculated by the “Synergyfinder” R package.
The graphs generated describe the difference between the expected value generated by the additivity model and the observed value generated by the experiment. If the effect determined by the additivity model<the effect observed the space is colored red, if the effect determined by the additivity mode>the effect observed then the space is colored green. The saturation of the color is proportional to the magnitude of the difference between these two values.

O=C(c1cc(Cc2n[nH]c(=O)c3ccccc23)ccc1F)N1CCN(C(=O)C2CC2)CC1 [Olaparib, olaparib, reference compound]
% TGI (HBCx16 model): −25.61% | % TGI (HBCx17 model): 122% | % TGI (TM00096 model): −1.94% | % TGI (HBCx12B model): 42.56% | % TGI (HBCx11 model): 60.95% | % TGI (TM00091 model): 21.26% | % TGI (J000101173 model): 4.71% | % TGI (TM00090 model): 86.05% | % TGI (HBCx1 model): 51.07% | % TGI (T298 model): 107% | % TGI (HBCx27 model): 7.819% | % TGI (J000100675 model): −17% | % TGI (HBCx23 model): 84.48% | % TGI (TM01079 model): 68.7% | % TGI (TM000113 model): 2.37% | Drug interaction with Compound 67A (synergy) [1]: synergy observed
